Results reported in US6737383B1, “Herbicidal oxadiazolidines” (priority 1999, dated 2004).

Tests used:
pigweed = assay: Test B pre/postemergence pigweed; type: in vivo, Amaranthus retroflexus; settings: for Plant response rating, Redroot pigweed: scale of 0 to 10 where 0 is no effect and 10 is complete control
Outline: (§1)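 Herbicidal effect was estimated by eye on a ten-point control scale after plants spent twelve to sixteen days in a greenhouse following soil or foliar treatment. Foliar sprays targeted plants at one to four leaves; all doses were formulated in a non-phytotoxic solvent with surfactant.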

smallflower flatsedge = assay: Test B flood test smallflower flatsedge; type: in vivo, Cyperus difformis
Outline: (§2)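 Each value is a visual injury score relative to controls, with 10 meaning complete control and 0 no effect. Evaluation took place twelve to sixteen days after the 2-leaf-stage plants were treated and kept in the greenhouse.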

wild oat = assay: Test B pre/postemergence wild oat; type: in vivo, Avena fatua; settings: for Plant response rating, Wild oats: scale of 0 to 10 where 0 is no effect and 10 is complete control
Outline: as §1

rape = assay: Test B pre/postemergence rape; type: in vivo, Brassica napus; settings: for Plant response rating, Rape: scale of 0 to 10 where 0 is no effect and 10 is complete control
Outline: as §1

corn = assay: Test B pre/postemergence corn; type: in vivo, Zea mays
Outline: as §1

crabgrass = assay: Test B pre/postemergence crabgrass; type: in vivo, Digitaria sanguinalis
Outline: as §1

wheat = assay: Test B pre/postemergence wheat; type: in vivo, Triticum aestivum; settings: for Plant response rating, Wheat: scale of 0 to 10 where 0 is no effect and 10 is complete control
Outline: as §1

bamyardgrass = assay: Test B flood test barnyardgrass; type: in vivo, Echinochloa crus-galli
Outline: as §2

purple nutsedge = assay: Test B pre/postemergence purple nutsedge; type: in vivo, Cyperus rotundus; settings: for Plant response rating, Nutsedge: scale of 0 to 10 where 0 is no effect and 10 is complete control
Outline: as §1

cocklebur = assay: Test B pre/postemergence cocklebur; type: in vivo, Xanthium strumarium
Outline: as §1

duck salad = assay: Test B flood test duck salad; type: in vivo, Heteranthera limosa
Outline: as §2

morningglory = assay: Test B pre/postemergence morningglory; type: in vivo, Ipomoea hederacea; settings: for Plant response rating, Morningglory: scale of 0 to 10 where 0 is no effect and 10 is complete control
Outline: as §1

surinam grass = assay: Test B pre/postemergence surinam grass; type: in vivo, Brachiaria decumbens
Outline: as §1

sugar beet = assay: Test B pre/postemergence sugar beet; type: in vivo, Beta vulgaris; settings: for Plant response rating, Sugarbeets: scale of 0 to 10 where 0 is no effect and 10 is complete control
Outline: as §1

soybean = assay: Test B pre/postemergence soybean; type: in vivo, Glycine max; settings: for Plant response rating, Soybean: scale of 0 to 10 where 0 is no effect and 10 is complete control
Outline: as §1

blackgrass = assay: Test B pre/postemergence blackgrass; type: in vivo, Alopecurus myosuroides
Outline: as §1

velvetleaf = assay: Test B pre/postemergence velvetleaf; type: in vivo, Abutilon theophrasti; settings: for Plant response rating, Velvetleaf: scale of 0 to 10 where 0 is no effect and 10 is complete control
Outline: as §1

rice = assay: Test B flood test rice; type: in vivo, Oryza sativa
Outline: as §2

giant foxtail = assay: Test B pre/postemergence giant foxtail; type: in vivo, Setaria faberii
Outline: as §1

[1] = Postemergence, Rate 250 g/ha, scale 0 to 10
[2] = Preemergence, Rate 250 g/ha, scale 0 to 10, 0 is no effect, 10 is complete control
[3] = Preemergence, Rate 500 g/ha, scale 0 to 10, 0 is no effect, 10 is complete control
[4] = Rate 62 g/ha, Postemergence, scale 0 to 10 (0 no effect, 10 complete control)
[5] = Rate 125 g/ha, Postemergence, scale 0 to 10, 0 is no effect, 10 is complete control
[6] = Rate 62 g/ha, flood test species, Pre-emergence, visual evaluation after twelve to sixteen days
[7] = Rate 125 g/ha, under heading Pre-emergence, flood test species, visual evaluation after twelve to sixteen days
[8] = Rate 250 g/ha, Pre-emergence (flood test species), scale 0 to 10, 0 is no effect, 10 is complete control
[9] = Rate 500 g/ha, Pre-emergence, flood test species, scale 0 to 10 (0 no effect, 10 complete control)
[10] = Postemergence, Rate 500 g/ha, scale of 0 to 10 where 0 is no effect and 10 is complete control
[11] = Preemergence, Rate 62 g/ha, scale of 0 to 10 where 0 is no effect and 10 is complete control
[12] = Preemergence, Rate 125 g/ha, scale of 0 to 10 where 0 is no effect and 10 is complete control

SMILES: COC(=O)C(C)n1c(=O)on(C(=O)N(c2ccc(F)cc2F)C(C)C)c1=O (stereo not shown) [Compound 463]
- Redroot pigweed plant response rating (pigweed; [1]): 0
- Plant response rating, Redroot pigweed (pigweed; Preemergence, Rate 62 g/ha): 2
- Plant response rating, Redroot pigweed (pigweed; Preemergence, Rate 125 g/ha): 5
- Redroot pigweed plant response rating (pigweed; [2]): 10
- Redroot pigweed plant response rating (pigweed; [3]): 10
- Redroot pigweed plant response rating (pigweed; [4]): 0
- Redroot pigweed plant response rating (pigweed; [5]): 0
- Plant response rating, S. Flatsedge (0 to 10 scale, 0 is no effect, 10 is complete control) (smallflower flatsedge; [6]): 0
- S. Flatsedge plant response rating (0 to 10 scale, 0 is no effect, 10 is complete control) (smallflower flatsedge; [7]): 0
- S. Flatsedge plant response rating (smallflower flatsedge; [8]): 0
- S. Flatsedge plant response rating (smallflower flatsedge; [9]): 0
- Wild oats plant response rating (wild oat; [1]): 0
- Plant response rating, Wild oats (wild oat; Preemergence, Rate 62 g/ha): 0
- Plant response rating, Wild oats (wild oat; Preemergence, Rate 125 g/ha): 0
- Wild oats plant response rating (wild oat; [2]): 0
- Wild oats plant response rating (wild oat; [3]): 0
- Wild oats plant response rating (wild oat; [4]): 0
- Wild oats plant response rating (wild oat; [5]): 0
- Rape plant response rating (rape; [1]): 0
- Plant response rating, Rape (rape; Preemergence, Rate 62 g/ha): 0
- Plant response rating, Rape (rape; Preemergence, Rate 125 g/ha): 0
- Rape plant response rating (rape; [2]): 0
- Rape plant response rating (rape; [3]): 0
- Rape plant response rating (rape; [4]): 0
- Rape plant response rating (rape; [5]): 0
- Corn plant response rating (corn; [1]): 0
- Corn plant response rating (corn; [10]): 0
- Plant response rating, Corn (corn; [11]): 0
- Plant response rating, Corn (corn; [12]): 0
- Corn plant response rating (corn; [2]): 0
- Corn plant response rating (corn; [3]): 0
- Corn plant response rating (corn; [4]): 0
- Corn plant response rating (corn; [5]): 0
- Crabgrass plant response rating (crabgrass; [1]): 2
- Crabgrass plant response rating (crabgrass; [10]): 2
- Plant response rating, Crabgrass (crabgrass; [11]): 0
- Plant response rating, Crabgrass (crabgrass; [12]): 0
- Crabgrass plant response rating (crabgrass; [2]): 2
- Crabgrass plant response rating (crabgrass; [3]): 2
- Crabgrass plant response rating (crabgrass; [4]): 0
- Crabgrass plant response rating (crabgrass; [5]): 0
- Wheat plant response rating (wheat; [1]): 0
- Plant response rating, Wheat (wheat; Preemergence, Rate 62 g/ha): 0
- Plant response rating, Wheat (wheat; Preemergence, Rate 125 g/ha): 0
- Wheat plant response rating (wheat; [2]): 0
- Wheat plant response rating (wheat; [3]): 0
- Wheat plant response rating (wheat; [4]): 0
- Wheat plant response rating (wheat; [5]): 0
- Plant response rating, Barnyardgrass (0 to 10 scale, 0 is no effect, 10 is complete control) (bamyardgrass; [6]): 0
- Barnyardgrass plant response rating (0 to 10 scale, 0 is no effect, 10 is complete control) (bamyardgrass; [7]): 0
- Barnyardgrass plant response rating (bamyardgrass; [8]): 0
- Barnyardgrass plant response rating (bamyardgrass; [9]): 0
- Nutsedge plant response rating (purple nutsedge; [1]): 0
- Plant response rating, Nutsedge (purple nutsedge; Preemergence, Rate 62 g/ha): 0
- Plant response rating, Nutsedge (purple nutsedge; Preemergence, Rate 125 g/ha): 0
- Nutsedge plant response rating (purple nutsedge; [2]): 0
- Nutsedge plant response rating (purple nutsedge; [3]): 0
- Nutsedge plant response rating (purple nutsedge; [4]): 0
- Nutsedge plant response rating (purple nutsedge; [5]): 0
- Cocklebur plant response rating (cocklebur; [1]): 0
- Cocklebur plant response rating (cocklebur; [10]): 2
- Plant response rating, Cocklebur (cocklebur; [11]): 0
- Plant response rating, Cocklebur (cocklebur; [12]): 0
- Cocklebur plant response rating (cocklebur; [2]): 0
- Cocklebur plant response rating (cocklebur; [3]): 0
- Cocklebur plant response rating (cocklebur; [4]): 0
- Cocklebur plant response rating (cocklebur; [5]): 0
- Plant response rating, Ducksalad (0 to 10 scale, 0 is no effect, 10 is complete control) (duck salad; [6]): 0
- Ducksalad plant response rating (0 to 10 scale, 0 is no effect, 10 is complete control) (duck salad; [7]): 0
- Ducksalad plant response rating (duck salad; [8]): 0
- Ducksalad plant response rating (duck salad; [9]): 0
- Morningglory plant response rating (morningglory; [1]): 2
- Plant response rating, Morningglory (morningglory; Preemergence, Rate 62 g/ha): 0
- Plant response rating, Morningglory (morningglory; Preemergence, Rate 125 g/ha): 0
- Morningglory plant response rating (morningglory; [2]): 0
- Morningglory plant response rating (morningglory; [3]): 0
- Morningglory plant response rating (morningglory; [4]): 0
- Morningglory plant response rating (morningglory; [5]): 0
- B. signalgrass plant response rating (surinam grass; Postemergence, Rate 250 g/ha, scale 0 to 10, 0 no effect, 10 complete control): 0
- B. signalgrass plant response rating (surinam grass; [10]): 0
- Plant response rating, B. signalgrass (surinam grass; [11]): 0
- Plant response rating, B. signalgrass (surinam grass; [12]): 0
- B. signalgrass plant response rating (surinam grass; [2]): 0
- B. signalgrass plant response rating (surinam grass; [3]): 2
- B. signalgrass plant response rating (surinam grass; [4]): 0
- B. signalgrass plant response rating (surinam grass; [5]): 0
- Sugarbeets plant response rating (sugar beet; [1]): 0
- Plant response rating, Sugarbeets (sugar beet; Preemergence, Rate 62 g/ha): 0
- Plant response rating, Sugarbeets (sugar beet; Preemergence, Rate 125 g/ha): 0
- Sugarbeets plant response rating (sugar beet; [2]): 0
- Sugarbeets plant response rating (sugar beet; [3]): 0
- Sugarbeets plant response rating (sugar beet; [4]): 0
- Sugarbeets plant response rating (sugar beet; [5]): 0
- Soybean plant response rating (soybean; [1]): 1
- Plant response rating, Soybean (soybean; Preemergence, Rate 62 g/ha): 0
- Plant response rating, Soybean (soybean; Preemergence, Rate 125 g/ha): 0
- Soybean plant response rating (soybean; [2]): 0
- Soybean plant response rating (soybean; [3]): 0
- Soybean plant response rating (soybean; [4]): 1
- Soybean plant response rating (soybean; [5]): 1
- Blackgrass plant response rating (blackgrass; [1]): 0
- Blackgrass plant response rating (blackgrass; [10]): 2
- Plant response rating, Blackgrass (blackgrass; [11]): 0
- Plant response rating, Blackgrass (blackgrass; [12]): 0
- Blackgrass plant response rating (blackgrass; [2]): 2
- Blackgrass plant response rating (blackgrass; [3]): 4
- Blackgrass plant response rating (blackgrass; [4]): 0
- Blackgrass plant response rating (blackgrass; [5]): 0
- Velvetleaf plant response rating (velvetleaf; [1]): 0
- Plant response rating, Velvetleaf (velvetleaf; Preemergence, Rate 62 g/ha): 0
- Plant response rating, Velvetleaf (velvetleaf; Preemergence, Rate 125 g/ha): 0
- Velvetleaf plant response rating (velvetleaf; [2]): 0
- Velvetleaf plant response rating (velvetleaf; [3]): 2
- Velvetleaf plant response rating (velvetleaf; [4]): 0
- Velvetleaf plant response rating (velvetleaf; [5]): 0
- Plant response rating, Rice (0 to 10 scale, 0 is no effect, 10 is complete control) (rice; [6]): 0
- Rice plant response rating (0 to 10 scale, 0 is no effect, 10 is complete control) (rice; [7]): 0
- Rice plant response rating (rice; [8]): 0
- Rice plant response rating (rice; [9]): 0
- Giant foxtail plant response rating (giant foxtail; [1]): 6
- Giant foxtail plant response rating (giant foxtail; [10]): 6
- Plant response rating, Giant foxtail (giant foxtail; [11]): 0
- Plant response rating, Giant foxtail (giant foxtail; [12]): 0
- Giant foxtail plant response rating (giant foxtail; [2]): 3
- Giant foxtail plant response rating (giant foxtail; [3]): 10
- Giant foxtail plant response rating (giant foxtail; [4]): 0
- Giant foxtail plant response rating (giant foxtail; [5]): 0
